Results on ten compounds are retold here after publication PMC12029069, “Synthesis and Evaluation of Antitumor and Anti-Angiogenesis Activity of Pyrone- or Pyridone-Embedded Analogs of Cortistatin A” (Marine Drugs, 2025).

Read-outs that look alike come from different tables or passages of the source. Marks after values point to notes of the source that are not given here.

In series [1] the test system is HUVECs. The conditions noted are these: cited from earlier work; for S.I. (selective index: IC50 against KB3-1 cells/IC50 against HUVECs): KB3-1 over HUVECs.
For series [2], the system named is human epidermoid carcinoma KB3-1 cells. Particulars: cited from earlier work.
Series [3] deals with HUVECs. The experiment in a line: Antiproliferative activity against HUVECs (WST-8, 72 h). Type of series: cell-based, human. Particulars: for IC50: 72 h, WST-8, average of triplicate; for S.I. (selective index: IC50 against KB3-1 cells/IC50 against HUVECs): KB3-1 over HUVECs. As to the method: HUVECs (5 × 10^5 cells/vial) were purchased from Kurabo Inc. and grown in HuMedia-EG2 medium with growth supplements (Kurabo, Osaka, Japan). HUVECs in the culture medium were plated into each well of 96-well plates (2 × 10^3 cells/well/100 µL). After 24 h, the serially diluted compounds as a 5% DMSO/EtOH or EtOH solution (1 µL) were added, and then the plates were incubated for an additional 72 h in a humidified atmosphere of 5% CO2 at 37 °C. The cell proliferation was detected by WST-8 colorimetric reagent (Nacalai Tesque, Inc., Kyoto, Japan). The IC50 value was determined by linear interpolation from the growth inhibition curve, and the averaged IC50 values of the triplicate experiment are shown in Table 1.

Series [4] has as its system human epidermoid carcinoma KB3-1 cells. The series is described as follows: Antiproliferative activity against KB3-1 cancer cells (WST-8, 72 h). Format: cell-based. As to the method:
KB3-1 cells were cultured in RPMI-1640 medium supplemented with 10% heat-inactivated fetal bovine serum and kanamycin (50 μg/mL). Cells were plated into 96-well microplates at 2 × 10^3 cells/100 μL assay medium/well, and various concentrations of test compounds were added to each well as a 5% DMSO/EtOH or EtOH solution (1 µL). The plates were incubated at 37 °C in a humidified atmosphere of 5% CO2 for 72 h, and cell proliferation was determined by WST-8 colorimetric assay as above, and the averaged IC50 values of the triplicate experiment are shown in Table 1.

The next series deals with CDK8. The conditions noted are these: ref [37]; cited from earlier work.
Series [5] relates to Murine sarcoma S180 cells. The series is described as follows: In vivo antitumor effect in mice inoculated with sarcoma S180 cells. Particulars: every other day for 14 days, S180 s.c. in ddY mice. An excerpt: Murine sarcoma S180 cells (1 × 10^6 cells/body) were implanted subcutaneously into the right ventral flank of female ddY mice (6 weeks old). After one week from implantation, analog 19 was orally administered on every other day for 14 days (total 7 times) as a suspension in 1% CMC-Na. Then, the tumor was isolated and weighed to calculate the inhibition ratio. The control group and the group treated with the testing compound consisted of six mice each in this study.

The nature of series [6]: Body weight of mice during the Matrigel plug assay (acute toxicity). Format: in vivo. The conditions noted are these: mean ± SD. As to the method: The body weight of mice of the control group (bFGF (+) or (−)) and the groups treated with the testing compound (0.1, 0.3, and 1 mg/kg) at day 1 and day 9 were measured. The mean activities of aspartate aminotransferase (AST) and alanine aminotransferase (ALT) in mouse serum at day 10 of control group and the 1 mg/kg treated group were measured using the LabAssay^TM AST or ALT kit (FUJIFILM Wako Pure Chemical Co., Osaka, Japan), respectively.

In series [7] the test system is new blood vessels in the Matrigel plug induced by bFGF. The series is described as follows: In vivo Matrigel plug assay (bFGF-induced angiogenesis, hemoglobin content). Further details: species or system mice. Particulars: 0.3 mg/kg oral, every other day (5 times), day 10, mean ± SD. As to the method:
All animal procedures were approved by the Committee on Animal Experimentation of Osaka University (Approval number: DouYaku 24-8-1). The measurements of in vivo angiogenesis using Matrigel plugs were performed as described previously. An aliquot (250 µL) of Matrigel containing 200 ng/mL of bFGF and 100 U/mL of heparin was injected subcutaneously into the ventral side of female ddY mice (6 weeks old, N = 4, Japan SLC, Inc., Shizuoka, Japan). Then, analog 19 was orally administered on every other day (total 5 times: day 1, 3, 5, 7, and 9) as a suspension in 1% sodium carboxymethyl cellulose (CMC-Na). At day 10, the Matrigel plugs were photographed and removed. The levels of new vessels were quantified by measuring the hemoglobin of the Matrigel plug (µg hemoglobin/mg Matrigel) with the Drabkin reagent Kit.

The nature of series [8]: Hepatic toxicity: AST and ALT activities in mouse serum. Type of series: in vivo, mice. Particulars: 1 mg/kg oral treatment group, day 9. As to the method: The body weight of mice of the control group (bFGF (+) or (−)) and the groups treated with the testing compound (0.1, 0.3, and 1 mg/kg) at day 1 and day 9 were measured. […]
[9] abbreviates: Homo sapiens, KB 3-1, WST-8, average of triplicate.

For the compound `C[C@]12CCC3=CC4=C(CCCC4=O)O[C@H]3[C@@H]1CC[C@@H]2c1ccc2ccncc2c1` [Compound 2], the “S.I. (selective index: IC50 against KB3-1 cells/IC50 against HUVECs)” value in the series with HUVECs [1] (ref [21]) was 300 ^c. The IC50 with HUVECs [1] (reported value ref [21]) was 35 nM; in series [2] (reported value ref [21]), 10500 nM.
For `CN(C)[C@H]1CC[C@@]2(C)[C@@H](CC[C@@H]3[C@@H]2CC[C@]2(C)[C@@H](c4ccc5ccncc5c4)CC[C@@H]32)C1` [Compound 28, reference compound], the 50% inhibitory concentration (IC50) was 560 nM in the series on HUVECs [3] (Homo sapiens, HUVEC); 4800 nM in series [4] (setting [9]); 24 nM in the series with CDK8. Further, the “S.I. (selective index: IC50 against KB3-1 cells/IC50 against HUVECs)” value with HUVECs [3] amounted to 8.6.
Take `C[C@]12CCC3=Cc4c(cc[nH]c4=O)O[C@H]3[C@@H]1CC[C@@H]2c1ccc2ccncc2c1` [Compound 13, (3S,3aR,11aS,11bR)-3-(Isoquinolin-7-yl)-3a-methyl-2,3,3a,4,5,8,11a,11b-octahydrocyclopenta[7, 8]chromeno[3,2-c]pyridin-7(1H)-one]: the IC50 in the series on HUVECs [3] (Homo sapiens, HUVEC) came to 10 nM; in series [4] (setting [9]), 11000 nM. Further, the “S.I. (selective index: IC50 against KB3-1 cells/IC50 against HUVECs)” value with HUVECs [3] turned out to be 1100. Further, the “fold higher potency than 7 against HUVECs” value in the series on HUVECs [3] (relative to analog 7) came to 9 fold.
For the compound `Cc1cc2c(c(=O)o1)C=C1CC[C@]3(C)[C@@H](c4ccc5ccncc5c4)CC[C@H]3[C@@H]1O2` [Compound 7, (3S,3aR,11aS,11bR)-3-(Isoquinolin-7-yl)-3a,9-dimethyl-1,2,3,3a,4,5,11a,11b-octahydro-7H-cyclopenta[h]pyrano[4,3-b]chromen-7-one], the half-maximal inhibitory concentration (IC50) was 90 nM in the series on HUVECs [3] (Homo sapiens, HUVEC) and 62800 nM in series [4] (setting [9]). Also, the “S.I. (selective index: IC50 against KB3-1 cells/IC50 against HUVECs)” value with HUVECs [3] was determined as 700.
Regarding `CC(=O)NCC1CC(=O)C2=C(C1)O[C@@H]1C(=C2)CC[C@]2(C)[C@@H](c3ccc4ccncc4c3)CC[C@@H]12` (stereo partly shown) [Compound 3], the “S.I. (selective index: IC50 against KB3-1 cells/IC50 against HUVECs)” value in the series with HUVECs [1] (ref [21]) is on record as 3150 ^c. For the same compound, the IC50 was 2.6 nM in the series on HUVECs [1] (reported value ref [21]) and 8200 nM in series [2] (reported value ref [21]).
For the compound `CC(=O)NCc1c2c(c(=O)n(C)c1C)C=C1CC[C@]3(C)[C@@H](c4ccc5ccncc5c4)CC[C@H]3[C@@H]1O2` [Compound 27, N-(((3S,3aR,11aS,11bR)-3-(Isoquinolin-7-yl)-3a,8,9-trimethyl-7-oxo-1,2,3,3a,4,5,7,8,11a,11b-decahydrocyclopenta[7, 8]chromeno[3,2-c]pyridin-10-yl)methyl)acetamide], in the series on HUVECs [3], the half-inhibitory concentration (IC50) was 10 nM and the “S.I. (selective index: IC50 against KB3-1 cells/IC50 against HUVECs)” value is recorded as 1340. This compound returned an IC50 in [4] (WST-8, average of triplicate) of 13400 nM.
Consider `Cn1ccc2c(c1=O)C=C1CC[C@]3(C)[C@@H](c4ccc5ccncc5c4)CC[C@H]3[C@@H]1O2` [Compound 15, (3S,3aR,11aS,11bR)-3-(Isoquinolin-7-yl)-3a,8-dimethyl-2,3,3a,4,5,8,11a,11b-octahydrocyclopenta[7, 8]chromeno[3,2-c]pyridin-7(1H)-one], for which the IC50 amounted to 3 nM in the series with HUVECs [3] (Homo sapiens, HUVEC) and 8600 nM in [4] (setting [9]). For the same compound, in the series on HUVECs [3], the “S.I. (selective index: IC50 against KB3-1 cells/IC50 against HUVECs)” value was found to be 2870. For the same compound, in the series on HUVECs [3] (relative to analog 13), the “fold potency over 13 against HUVECs” value is on record as 3.3 fold.
As for `Cn1cc(CO)c2c(c1=O)C=C1CC[C@]3(C)[C@@H](c4ccc5ccncc5c4)CC[C@H]3[C@@H]1O2` [Compound 19, (3S,3aR,11aS,11bR)-10-(Hydroxymethyl)-3-(isoquinolin-7-yl)-3a,8-dimethyl-2,3,3a,4,5,8,11a,11b-octahydrocyclopenta[7, 8]chromeno[3,2-c]pyridin-7(1H)-one], the “tumor growth inhibition, reduction compared to the control group” value in [5] (0.1 mg/kg oral) was ~ 75%. Also, the tumor weight reduction entry in series [5] (1 mg/kg oral) was “more than 85%”. In addition, in the series with HUVECs [3], 1 nM corresponded to half-maximal inhibition (IC50) and the “S.I. (selective index: IC50 against KB3-1 cells/IC50 against HUVECs)” value is 6400. Besides, in [4] (WST-8, average of triplicate), 6400 nM corresponded to half-maximal inhibition (IC50). Besides, in series [6] (0.1 mg/kg oral), the “Body Weight Day 1” value is on record as 25.70 ± 0.58 g and the “Body Weight Day 9” value is on record as 26.12 ± 0.58 g. Further, in series [6] (0.3 mg/kg oral), the “Body Weight Day 1” value is reported as 25.60 ± 0.64 g and the “Body Weight Day 9” value was determined as 26.14 ± 0.62 g. Besides, the “Body Weight Day 1” value in [6] (1.0 mg/kg oral) worked out at 26.30 ± 0.41 g. Also, in series [7], the “Hb Content (hemoglobin µg/isolated Matrigel mg)” value came out at 2.42 ± 0.79 µg/mg. In series [8], the “ALT (alanine aminotransferase activity)” value is given as 48.4 ± 3.3 IU/L and the “AST (aspartate aminotransferase activity)” value amounted to 57.8 ± 4.5 IU/L.
For the compound Cortistatin A [Compound 1], in the series on HUVECs [1] (ref [8]), the “S.I. (selective index: IC50 against KB3-1 cells/IC50 against HUVECs)” value is on record as 3900 ^b. In addition, the half-inhibitory concentration (IC50) was 1.8 nM in the series on HUVECs [1] (reported value ref [8]) and 7000 nM in [2] (reported value ref [8]).
Regarding `Cc1oc(=O)c2c(c1CO)O[C@@H]1C(=C2)CC[C@]2(C)[C@@H](c3ccc4ccncc4c3)CC[C@@H]12` [Compound 11, (3S,3aR,11aS,11bR)-10-(Hydroxymethyl)-3-(isoquinolin-7-yl)-3a,9-dimethyl-1,2,3,3a,4,5,11a,11b-octahydro-7H-cyclopenta[h]pyrano[4,3-b]chromen-7-one], the IC50 in the series with HUVECs [3] (Homo sapiens, HUVEC) is 20 nM; in series [4] (setting [9]) it was 10000 nM. In addition, the “S.I. (selective index: IC50 against KB3-1 cells/IC50 against HUVECs)” value in the series with HUVECs [3] was 500.
